According to patent US20130017198A1, “MANIPULATION OF CALCIUM CHANNELS TO REGULATE AFTER-DEPOLARIZATION EVENTS IN CARDIAC MYOCYTES” (THE UAB RESEARCH FOUNDATION, priority 2010, published 2013):
Entries after “also recorded” stand apart in the source; their conditions may differ. Read-outs that look alike come from different tables or passages of the source.

Tests used:
[1] = test system: isolated rat cardiac muscle; assay: After-contractions in isolated rat cardiac muscle incubated with ATX-II and CPLA2 inhibitors; conditions: for IC50: isolated rat cardiac muscle incubated with ATX-II, read-out: IC50 (frequency of aftercontractions)
Description: In a separate experiment, isolated rat cardiac muscle was incubated with ATX-II in the presence of varying concentrations of amylcinnamoyl-anthranilic acid.

[2] = test system: left atrial appendage (LAA); assay: Action potential recording / after-depolarization in paced superfused rat LAA exposed to ATX-II; conditions: for action potential duration: ~30 nM ATX-II plus LOE-908 or SKF-96365
Excerpt: For example, isolated superfused muscles can be impaled with conventional glass microelectrodes of 10 to 30 MΩ resistance; these microelectrodes are filled with a solution of 3 M potassium chloride. Microelectrodes are routinely mounted on 30 μm silver-silver chloride spiral wire to allow for freedom of motion. Following the successful impalement of an individual myocyte, action potentials can be recorded with DC coupling at the center of the ring as the difference in voltage between the intracellular microelectrode and the extracellular silver-silver chloride reference electrode. Electrical signals are passed through a high-impedance capacitance-compensation preamplifier and are recorded on a personal computer at a sampling rate of […]. Subsequent data analysis of the action potentials of these muscles is performed using standard software (for an example of such a protocol, see Huang J et al., “Restitution properties during ventricular fibrillation in the in situ swine heart” Circulation 110:3161-3167 (2004), which is hereby incorporated by reference only for such teaching).
(§1) To determine whether ATX-II prolongs action potential duration and provokes after-depolarization and after-contractions, paced isolated rat LAA were superfused at 30° C., impaled with glass microelectrodes, and their action potentials were recorded. ATX-II was then added to the superfusate at about 30 nM and action potentials were recorded again.
(§2) A series of experiments was performed to test the hypothesis that the calcium source for after-depolarization is the ARC channel. To test whether after-contractions and after-depolarization require ARC or SOCC activity, experiments were performed with the ARC channel inhibitor LOE-908 and with the SOCC inhibitor SKF-96365. Rat LAA were superfused at 30° C. and exposed to ˜30 nM ATX-II. After 10-15 minutes, these muscles produced steady-state after-contractions, prolonged action potential duration and after-depolarization as shown previously.

CPLA2 activity in vivo = conditions: cited from earlier work
CPLA2 = target: T1, CPLA2 (Homo sapiens, UniProt P47712); conditions: selective inhibitor of CPLA2; cited from earlier work
T1 sequence (P47712 1-749): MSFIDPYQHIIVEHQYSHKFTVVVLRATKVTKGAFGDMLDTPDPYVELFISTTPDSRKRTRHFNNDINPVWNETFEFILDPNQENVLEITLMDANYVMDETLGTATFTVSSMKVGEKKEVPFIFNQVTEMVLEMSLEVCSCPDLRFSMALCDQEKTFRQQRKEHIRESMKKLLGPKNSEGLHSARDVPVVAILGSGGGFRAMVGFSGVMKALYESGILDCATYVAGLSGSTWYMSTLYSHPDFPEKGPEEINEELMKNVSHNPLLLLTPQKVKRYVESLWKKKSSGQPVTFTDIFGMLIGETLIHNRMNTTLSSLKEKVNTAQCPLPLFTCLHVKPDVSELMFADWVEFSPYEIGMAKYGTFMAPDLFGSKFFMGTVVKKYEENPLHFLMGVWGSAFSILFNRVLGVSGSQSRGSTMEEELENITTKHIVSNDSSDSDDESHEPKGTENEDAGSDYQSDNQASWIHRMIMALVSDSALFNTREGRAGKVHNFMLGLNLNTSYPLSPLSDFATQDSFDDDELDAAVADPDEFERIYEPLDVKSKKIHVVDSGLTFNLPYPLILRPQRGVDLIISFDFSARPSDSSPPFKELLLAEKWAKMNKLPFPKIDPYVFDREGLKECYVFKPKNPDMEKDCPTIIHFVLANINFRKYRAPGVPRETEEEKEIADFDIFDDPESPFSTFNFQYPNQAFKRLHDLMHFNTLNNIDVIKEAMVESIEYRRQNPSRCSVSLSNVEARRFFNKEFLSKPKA

[3] = test system: left atrial appendage (LAA); assay: ATX-II-induced after-contractions (mechanical activity) in paced superfused rat left atrial appendage
Description: as §1
The LAA was externally paced at 1 Hz throughout.
as §2, with “ATX-II.” for “ATX-II. After 10-15 minutes, these muscles produced steady-state after-contractions, prolonged action potential duration and after-depolarization as shown previously.”

[4] = target: T2, store-operated calcium channel (SOCC) (Rattus norvegicus, UniProt Q5M848); assay: Effect on store-operated calcium channel activity
T2 construct: from tissue; host or cells: rat left atrial appendage (LAA) muscle
T2 sequence (Q5M848 whole entry): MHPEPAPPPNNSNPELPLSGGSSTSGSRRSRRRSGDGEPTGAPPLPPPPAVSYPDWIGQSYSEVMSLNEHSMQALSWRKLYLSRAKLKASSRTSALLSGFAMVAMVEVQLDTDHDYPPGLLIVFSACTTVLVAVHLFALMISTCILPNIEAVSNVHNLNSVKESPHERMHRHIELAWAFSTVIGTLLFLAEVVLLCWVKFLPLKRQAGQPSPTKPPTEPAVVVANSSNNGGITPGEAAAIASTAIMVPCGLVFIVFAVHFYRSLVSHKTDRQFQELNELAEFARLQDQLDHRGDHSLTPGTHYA

ARC channel = target: T3, ARC channel (Rattus norvegicus, UniProt Q5M848+Q6AXR8); assay: Effect on ARC channel activity
T3 construct: from tissue; host or cells: rat left atrial appendage (LAA) muscle
T3 sequence (Q5M848 whole entry, other chains not shown): as the sequence (Q5M848 whole entry) above

[5] = test system: left atrial appendage (LAA); assay: Abnormal automatic activity of LAA at high ATX-II concentration; parameters: species or system rat
Description: Although moderate concentrations of ATX-II appear to cause after-contractions, high concentrations of ATX-II cause abnormal automatic activity. To further test the hypothesis that after-contractions occur via a separate mechanism from abnormal automatic activity, LAA were exposed to high concentrations (60 nM) of ATX-II. The LAA were then exposed to one of 40 μM LOE-908 without pacing, 20 μM SKF-96365 with 1 Hz pacing, or 40 μM SKF-96365 with 1 Hz pacing.

[6] = test system: left atrial appendage (LAA); assay: Abnormal automatic activity produced by 2-aminoethoxy diphenylborate (SOCC activator) in calcium-loaded LAA; conditions: calcium-loaded LAA treated with 2-aminoethoxy diphenylborate
Description: To further test the hypothesis that the calcium source for after-depolarization is not the SOCC, calcium-loaded LAA were treated with 2-aminoethoxy diphenylborate (an activator of the SOCC) to produce abnormal automatic activity. The LAA were then treated with either LOE-908 or SKF-96365.

[7] = LAA pre-treated with the compound, then ATX-II
[8] = increasing concentrations, ~30 nM ATX-II, rat LAA at 30° C.
[9] = increasing concentrations, ~30 nM ATX-II, data not shown
[10] = 0.6 μM ryanodine, after steady-state ATX-II after-contractions

CCCCCc1ccc(/C=C/C(=O)Nc2ccccc2C(=O)O)cc1 [ACA]
after contractions [1]: suppress after contractions | concentration as low as which after contractions are suppressed [1]: 10 µM | frequency of aftercontractions ([1]; 0-50 μM of ACA): decrease with increasing concentration | IC50 [1]: 10 ± 4.5 µM | after-depolarization [2]: suppress after-depolarization | concentration as low as which after-depolarization is suppressed [2]: 10 µM | after-depolarization ([2]; listed as amylcinnamoyl-anthranilic acid): effectively inhibit after-depolarization

O=C(CCc1ccc(OCCS(=O)(=O)CCOC(c2ccc(Cl)cc2)c2ccc(Cl)cc2)cc1)C(F)(F)F [BMS-229724, 4-[4-[2-[2-[bis(4-chlorophenyl)methoxy]ethyl-sulfonyl]ethoxy]phenyl]-1,1,1-trifluoro-2-butanone]
CPLA2 activity in vivo / skin inflammation (CPLA2 activity in vivo): suppression of skin inflammation | IC50 (CPLA2): 2.8 µM

COc1ccc(S(=O)(=O)Nc2ccccc2CN(C)C/C=C/c2ccc(Cl)cc2)cc1 [KN-92]
after-contractions [3, 7]: does not prevent after-contractions; also recorded: does not suppress after-contractions

COc1ccc(S(=O)(=O)N(CCO)c2ccccc2CN(C)C/C=C/c2ccc(Cl)cc2)cc1 [KN-93]
after-contractions [3, 7]: do not produce after-contractions; also recorded: suppression of after-contractions

COc1cc2c(cc1OC)C(C(C(=O)N(CCc1ccc(OC)c(OC)c1OC)CCc1ccc(OC)c(OC)c1OC)c1ccccc1)=NCC2 (stereo not drawn) [LOE-908]
store-operated calcium channel (SOCC) activity [4]: no effect on the activity of the store-operated calcium channel | ARC channel activity (ARC channel): inhibit the activity of the ARC channel | ectopic contractions ([3]; 20 μM): no ectopic contractions are observed | concentration as low as which ectopic contractions are effectively reduced ([3]; cardiac muscle): 1 µM | after-contractions [3, 8]: suppressed after-contractions in a dose-dependent manner | concentration as low as which after-depolarization is effectively reduced [2]: 1 µM | after-depolarization ([2]; 20 μM): no after-depolarization is observed | after-depolarization [2, 9]: The same was observed | action potential duration [2]: remained prolonged | abnormal automatic activity ([5]; 60 nM ATX-II, 40 μM LOE-908 without pacing): failed to suppress abnormal automatic activity

COc1ccc(CCCOC(Cn2ccnc2)c2ccc(OC)cc2)cc1 (stereo not drawn) [SKF-96365]
after-contractions [3, 8]: suppressed after-contractions in a dose-dependent manner | after-depolarization [2, 9]: The same was observed | action potential duration [2]: remained prolonged | abnormal automatic activity ([5]; 60 nM ATX-II, 20 μM or 40 μM SKF-96365 with 1 Hz pacing): either reduced or eliminated abnormal automatic activity | rate of spontaneous contractions caused by activation of the SOCC [6]: reduces the rate of spontaneous contractions

COc1cccc2c1cc([N+](=O)[O-])c1c(C(=O)O)cc3c(c12)OCO3 [aristolochic acid, 8-methoxy-6-nitrophenanthro[3,4-d][1,3]dioxole-5-carboxylic acid]
after contractions [1]: suppress after contractions | IC50 [1]: 31 ± 5 µM | after-depolarization [2]: effectively inhibit after-depolarization; also recorded: suppress after-depolarization

COc1ccc(CCN(C)CCCC(C#N)(c2ccc(OC)c(OC)c2)C(C)C)cc1OC (stereo not drawn) [verapamil]
production of after-contractions ([3]; 10 μM verapamil, paced at 1 Hz, steady-state ATX-II after-contractions): did not affect the production of after-contractions

ATX-II: Anemonia sulcata toxin, sodium channel regulator that increases the late sodium current; arrhythmic agent
concentration inducing arrhythmia and after-depolarization [3]: 5 to 60 nM | after-contractions following each paced contraction ([3]; 30 nM ATX-II, LAA paced at 1 Hz): after-contractions are observed | concentration below which the ability to induce arrhythmia starts to decrease ([3]; KH buffer with added glucose): 10 to 50 nM | action potential duration and early after-depolarization ([2]; 30 nM ATX-II, paced isolated rat LAA superfused at 30° C.): produced prolonged action potential duration and produced early after-depolarization during repolarization | rate of rapid contraction in the absence of pacing ([5]; 60 nM ATX-II, FIG. 8A): 4 Hz | rate of automatic activity persisting in the absence of pacing ([5]; 60 nM ATX-II, FIG. 8B): 2.7-3.3 Hz | after-contractions ([5]; 60 nM ATX-II, left atria paced at 1 Hz): displayed after-contractions | abnormal automatic activity ([5]; higher concentration of ATX-II): displayed abnormal automatic activity

methyl-β-cyclodextrin
store-operated calcium channel (SOCC) activity [4]: only reducing the activity of the SOCC to a minor degree | ARC channel activity (ARC channel): completely suppresses ARC channel activity | after-contractions ([3]; 10 mM MβC superfusion then wash, ~30 nM ATX-II, 20 min recording): produced no after-contractions | concentration as low as which ectopic contractions are effectively eliminated ([3]; cardiac muscle): 10 mM | concentration as low as which after-depolarization is effectively eliminated [2]: 10 mM

ryanodine
after-contractions [3, 10]: after-contractions continued to occur | mechanical force [3, 10]: greatly diminished mechanical force
